These results are taken from publication PMC9151520 (Archives of Toxicology, 2022).

“And” between values parts separate entries of the source, which are not always exact repeats. Equal entries are not always repeated. Where two headings read alike, the source gives them in different places.

Series [1] concerns p53 signaling (p53RE-bla HCT-116 cells). In words: cells. It is filed as cell-based.
Series [2] shares this test system. The series can be described thus: cells. The class given is cell-based. The source holds these as a separate data set.
Series [3] shares this test system. In words: cells. It is filed as cell-based. Further details: efficacy: unit not given here.
The test system is the same in series [4].
Series [5] shares this test system. The source holds these as a separate data set.
In series [6] the test system is p53RE-bla HCT-116 cells.
The conditions of series [7]: rat, microsomes, pH 7.4.
For series [8] the following is noted: rat.
Series [9] concerns p53 signaling (p53RE-bla HCT-116 cells). In words: cells. Particulars: Homo sapiens.
Series [10] has the same test system. In words: cells. Particulars: Homo sapiens. This is another data set of the same source.
Series [11] in a line: in vitro. Particulars: male, Sprague Dawley, rat, microsomes, pH 7.4.
The mark [12] stands for this setting: HCT-116, read-out: p53 activation efficacy, primary screening.
Where [13] appears, read: read-out: p53 activation EC50, RLM.
Setting [14] is: HCT-116, read-out: p53 activation EC50, RLM.
[15] abbreviates: HCT-116, read-out: p53 activation EC50, HLM.

With `COP(=S)(NC(C)C)Oc1ccc(C)cc1[N+](=O)[O-]` (centres unmarked) [Amiprofos-methyl], the “p53 activation EC50” value in series [1] and in [5] was “inactive” in each case. Further, the p53 activation efficacy entry in series [1] was “inactive”; in series [4] it was 84.8532 and 75.0867. The EC50 entry in series [2] is “Inactive”; in series [3] (read-out: EC50), 4480 nM; in [4], 4690 nM. In series [3], the efficacy is listed as 4.48 ± 0.3 ( 100.11 ± 8.75 ) %. Also, the “activity outcome in p53-bla assay” value in series [4] was “induce p53 signaling”. In series [6], the “Viability EC50” value was “inactive”. The Viability efficacy entry in [6] is “inactive”. In [7], the “Microsome stability Half-life without cells” value came out at 1.11 min.

Consider `Cc1cc(=O)oc2cc(O)ccc12.O` [4-Methylumbelliferone hydrate], for which, in [1], the “EC50, p53 activation, cherry pick confirmation” value is “inactive”; the “EC50, p53 activation, primary screening” value is “inactive”; the “Efficacy, p53 activation, cherry pick confirmation” value is “inactive”; the “Efficacy, p53 activation, primary screening” value was “inactive”. Besides, the EC50 result in series [2] was “Inactive”. Besides, the efficacy in series [3] is on record as 25.18 ± 1.7 ( 100.84 ± 7.34 ) %. The EC50 in series [3] (read-out: EC50) worked out at 25200 nM. Also, in [4], the midpoint of the response, the EC50, lay at 23300 nM. Moreover, the EC50 in series [4] (read-out: EC50, p53 activation, cherry pick confirmation) was determined as 25700 nM. In addition, the EC50 in series [4] (read-out: EC50, p53 activation, primary screening) came to 33400 nM. Also, in series [5], the “EC50, p53 activation, cherry pick confirmation” value was “inactive” and the “EC50, p53 activation, primary screening” value was “inactive”. For the same compound, in series [6], the “EC50, viability, cherry pick confirmation” value was “inactive”; the “EC50, viability, primary screening” value was “inactive”; the “Efficacy, viability, cherry pick confirmation” value is “inactive”; the “Efficacy, viability, primary screening” value is “inactive”. The “Microsome stability Half-life without cells” value in series [7] was determined as 26.74 ± 0.98 min.

For `CCOP(=S)(OCC)SCSC(C)(C)C` [Terbufos], the “p53 activation EC50, cherry pick confirmation” value in [1] and in series [5] was “inactive” in each case. Further, the “p53 activation EC50, primary screening” value in [1] was “inactive”. Also, the “p53 activation efficacy, cherry pick confirmation” value in [1] and in series [5] was “inactive” throughout. The “p53 activation efficacy, primary screening” value in [1] was “inactive”. In addition, the EC50 result in series [2] is “Inactive”; in series [3] (Homo sapiens, HCT-116), 1120 nM; in series [9] (HCT-116), 2810 nM; in series [9] (HCT-116, read-out: p53 activation EC50, cherry pick confirmation), 1320 nM. Further, the Emax in series [3] (Homo sapiens, HCT-116, read-out: efficacy) was 53.9%; in series [9] (HCT-116, read-out: efficacy) it was 62.7%; in series [9] (HCT-116, read-out: p53 activation efficacy, cherry pick confirmation), 54.3%; in series [9] (setting [12]), 37.5%; in series [10] (setting [12]), 37.6%. Further, the “activity outcome in p53-bla assay” value in series [4] is “induce p53 signaling”. The “Viability EC50, cherry pick confirmation” value in series [6] is “inactive”. In [6], the “Viability EC50, primary screening” value is “inactive”. In addition, the “Viability efficacy, cherry pick confirmation” value in series [6] is “inactive”. For the same compound, the “Viability efficacy, primary screening” value in [6] is “inactive”. The “Depletion after 16 h of incubation with cells” value (from here on “Depletion after 16 h”) in [8] came out at 98.65 ± 1.08%. The compound also had a half-life in series [11] of 1.12 ± 0.2 min.

`CCNP(=S)(OC)O/C(C)=C/C(=O)OC(C)C` (centres unmarked) [Propetamphos]: the “p53 activation EC50” value in series [1] and in series [5] was “inactive” in each case. In addition, the p53 activation efficacy entry in series [1] is “inactive”; in series [4] it was 78.66 and 99.2667. Moreover, the EC50 in series [2] (Homo sapiens, HCT-116, 0.5 h) turned out to be 2000 nM; in [3] (Homo sapiens, HCT-116) it was 2590 nM; in series [9] (HCT-116) it was 3050 nM; in [10] (HCT-116, read-out: p53 activation EC50), 731 nM. For the same compound, the “Viability EC50” value in [6] is “inactive”. Moreover, in series [6], the Viability efficacy result was “inactive”. In series [8], the “Depletion after 16 h” value is reported as 91.32 ± 1.7%. For the same compound, the Emax is 88.6% in series [9] (HCT-116, read-out: efficacy) and 39.9% in series [10] (HCT-116, read-out: p53 activation efficacy). The half-life in series [11] was > 120 min.

In the case of `CCOC(=O)c1cn2nc(OP(=S)(OCC)OCC)cc2nc1C` [Pyrazophos], in series [1], the “p53 activation EC50, No MS” value was “inactive” and the “p53 activation Efficacy, No MS” value is “inactive”. This compound came in with an EC50 in series [2] (Homo sapiens, HCT-116, 0.5 h) of 41000 nM. Also, the EC50 in series [3] (Homo sapiens, HCT-116) came to 790 nM. The EC50 in series [4] (setting [13]) is 877 nM. Further, the “p53 activation EC50, HLM” value in series [5] was “inactive”. Besides, in [6], the “Viability EC50, HLM” value was “inactive”; the “Viability EC50, No MS” value was “inactive”; the “Viability EC50, RLM” value was “inactive”; the “Viability Efficacy, HLM” value is “inactive”. In series [6], the “Viability Efficacy, No MS” value was “inactive” and the “Viability Efficacy, RLM” value is “inactive”. In [8], the “Depletion after 16 h” value is reported as 88.65 ± 0.14%. Besides, the EC50 in [9] (HCT-116) was 700 nM. The Emax in series [9] (HCT-116, read-out: efficacy) was 32.7%. For the same compound, in series [9] (setting [14]), the EC50 was 765 nM. Further, the EC50 in series [10] (setting [15]) is 3670 nM. Further, in [11], the half-life amounted to 2.29 ± 0.71 min.

For `COP(=S)(OC)Oc1ccc(S(=O)(=O)N(C)C)cc1` [Famphur], in [1], the “p53 activation EC50, No MS” value is “inactive” and the “p53 activation Efficacy, No MS” value is “inactive”. The same compound returned a 50% effective concentration (EC50) in [2] (Homo sapiens, HCT-116, 0.5 h) of 490 nM. For the same compound, in series [3] (Homo sapiens, HCT-116), the response was half-maximal at 3100 nM (EC50). In addition, in [4] (setting [13]), the half-maximal effective concentration (EC50) was found to be 3100 nM. For the same compound, the “p53 activation EC50, HLM” value in [5] was “inactive”. Also, in series [6], the “Viability EC50, HLM” value was “inactive”; the “Viability EC50, No MS” value was “inactive”; the “Viability EC50, RLM” value is “inactive”; the “Viability Efficacy, HLM” value was “inactive”. Besides, in series [6], the “Viability Efficacy, No MS” value is “inactive” and the “Viability Efficacy, RLM” value was “inactive”. In addition, the “Depletion after 16 h” value in series [8] stood at 87.7 ± 3.02%. Also, in series [9] (HCT-116), the EC50 came to 2460 nM. The Emax in [9] (HCT-116, read-out: efficacy) was 73.6%. Besides, the concentration for a half-maximal effect (EC50) in series [9] (setting [14]) worked out at 3120 nM. For the same compound, the half-maximal effective concentration (EC50) in series [10] (setting [15]) is 2020 nM. Moreover, the half-life in series [11] was 10.8 ± 1.96 min.

By EC50 is commonly meant the concentration at which the effect is half-maximal. Usually half-life stands for the time in which the quantity being followed falls by half.
